“Also recorded” adds a separate entry of the source.
Columns and labels:
[1] = tested on: K562; assay: Annexin V/propidium iodide cell death assay by flow cytometry, K562; conditions: K562, 24 h, 0.25-1.0 μM
Procedure: (§3) Cells were incubated for 24 hours with or without addition of the novel compounds. The index of apoptosis induced by the novel compounds was obtained as follows: percentage of cells in induced apoptosis (treated with the drugs) minus the percentage of cells in spontaneous apoptosis (not treated with the drugs) (Vasconcelos et aL, 2007; Vasconcelos et al., 2011).
(§4) To analyze the apoptosis induction potential by the new imatinib derivatives, annexin V/propidium iodide assay was used by flow cytometry.
(§5) To analyze death by apoptosis, the cells were incubated for 24 hours instead of 72 hours.
(§6) Cells without addition of any drug were used for the evaluation of spontaneous death. Cells incubated with DMSO (used to solubilize the compounds derived from imatinib) were used to discard the effect of this substance on cell death induction.

[2] = tested on: K562; assay: MTT cell viability, K562 lineage; conditions: for Cell viability percentage: average of three independent experiments;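 on all read-outs here: K562 cells (BCR-ABL expressing, CML derived), MTT formazan absorbance after 72 h exposure, compared with untreated control cells, at least three independent experiments run in triplicate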
Procedure: (§7) Cell viability was evaluated through the MTT method, after 72 hours of incubation with TKIs. MTT is a colorimetric method which measures mitochondrial dehydrogenase activity, based on the ability of living cells to reduce the salt, 3-(4,5-dimethylazole-2-yl)-2,5-diphenyltetrazolium bromide in the product formazan.
Cells were cultured in plates of 96 wells at the concentration of 1×10^4 cells/well in 200 μl of RPMI supplemented with 10% fetal bovine serum. 10 μl of each of the novel TKIs, or imatinib, previously diluted in RPMI medium, were added in different concentrations, and no molecule or imatinib was added in the control group. The plates were kept in a humid atmosphere containing 5% CO2 at 37° C. for 72 hours. Four hours before completion of the established time (72 hours), 20 μl of MTT (Sigma) (final concentration of 10 μg/ml) were added. The plates were kept in the oven for the remaining four hours. 180 μl of the supernatant were removed from each well, and then 150 μl of dimethylsulfoxide (DMSO; Sigma) were added, homogenizing thoroughly for complete dissolution of the salt crystals formed by mitochondrial metabolism, thus resulting in a coloration. […] The 96-well plate was read by the spectrophotometer (Spectramax Plus 384), using a wavelength of 570 nm. The results were analyzed through the absorbance of each well. The viability percentage was obtained through the following formula: [(Absorbance of cells treated with TKIs or imatinib/Absorbance of untreated cells)×100]. All the tests were performed in three different occasions. Three experiments, at least, independent, were carried out and triplicates were made for each concentration. By means of this method, we detected the cell inhibition percentage of each new molecule and we compared it with the percentage of viability reduction caused by imatinib.

[3] = tested on: K562-Lucena 1; conditions: MTT, 72 h; for viability reduction compared between K562 and Lucena lineages: FIG. 2A
Procedure: as §7
(§8) Cells were cultured in plates of 96 wells at the concentration of 1×10^4 cells/well in 200 μl of RPMI supplemented with 10% fetal bovine serum. 10 μl of each of the novel TKIs, or imatinib, previously diluted in RPMI medium, were added in different concentrations, and no molecule or imatinib was added in the control group. The plates were kept in a humid atmosphere containing 5% CO2 at 37° C. for 72 hours. Four hours before completion of the established time (72 hours), 20 μl of MTT (Sigma) (final concentration of 10 μg/ml) were added. The plates were kept in the oven for the remaining four hours. 180 μl of the supernatant were removed from each well, and then 150 μl of dimethylsulfoxide (DMSO; Sigma) were added, homogenizing thoroughly for complete dissolution of the salt crystals formed by mitochondrial metabolism, thus resulting in a coloration. […] The 96-well plate was read by the spectrophotometer (Spectramax Plus 384), using a wavelength of 570 nm. The results were analyzed through the absorbance of each well. The viability percentage was obtained through the following formula: [(Absorbance of cells treated with TKIs or imatinib/Absorbance of untreated cells)×100]. All the tests were performed in three different occasions. Three experiments, at least, independent, were carried out and triplicates were made for each concentration.
(§9) The compounds were tested for their cytotoxicity in this lineage.
(§10) The viability of the Lucena cell lineage was evaluated after 72 h of incubation with the novel compounds, through the MTT assay.

[4] = tested on: K562; assay: Cell cycle and DNA fragmentation analysis (propidium iodide, flow cytometry), K562; format: cell-based, human; conditions: K562, 24 h
Procedure: (§1) The analysis of the impact of the new compounds on the phases of the cell cycle and on the induction of DNA fragmentation were carried out by DNA labeling with the fluorochrome propidium iodide. The assays were analyzed by flow cytometry and the results were analyzed in relation to the control (cells without treatment).
(§2) The induction of DNA fragmentation by the new compounds and by imatinib was assessed by flow cytometry. The analysis of cell cycle and DNA fragmentation was carried out upon 24 hours of incubation with the compounds.

[5] = tested on: K562-Lucena 1; assay: Annexin V/propidium iodide cell death assay by flow cytometry, K562-Lucena 1; conditions: for induction of cell death (annexin-positive and annexin/PI-positive cells): Lucena, 0.25-1.0 μM
Procedure: as §3, §4, §5, §6

[6] = tested on: CML; conditions: CML patients treated with imatinib (Hunter, 2007); cited from earlier work
[7] = tested on: K562-Lucena 1; assay: cells; conditions: Homo sapiens, K562-Lucena 1, 72 h, read-out: reduction in the viability
Procedure: as §7, §8, §9, §10

[8] = tested on: K562-Lucena 1; assay: Cell cycle and DNA fragmentation analysis (propidium iodide, flow cytometry), K562-Lucena 1; format: cell-based, human; conditions: 24 h
Procedure: as §1, §2

[9] = Homo sapiens, K562, 72 h, read-out: Cell viability percentage

SMILES: C[C@H]1[C@@H](OC(=O)CCC(=O)O)O[C@@H]2O[C@@]3(C)CC[C@H]4[C@H](C)CC[C@@H]1[C@@]24OO3.Cc1ccc(N)cc1Nc1nccc(-c2cccnc2)n1 [Compound 04, 4-methyl-3-((4-(pyridin-3-yl)pyrimidin-2-yl)amino)benzenaminium-4-oxo-4-(((3R,5aS,6R,8aS,9R,10R,12R,12aR)-3,6,9-trimethyldecahydro-3H-3,12-epoxy[1,2]dioxepin[4,3-yl]isochromen-10-yl)oxy)butanoate]
- induction of cell death (annexin-positive and annexin/PI-positive cells) [1]: induced cell death, probably by apoptosis
- Cell viability percentage ([2]; K562, MTT, 72 h, 0.05 μM): 97.54%
- Cell viability percentage ([2]; K562, MTT, 72 h, 0.1 μM): 86.68%
- Cell viability percentage ([2]; K562, MTT, 72 h, 0.25 μM): 87.20%
- Cell viability percentage ([2]; K562, MTT, 72 h, 0.5 μM): 79.53%
- Cell viability percentage ([2]; K562, MTT, 72 h, 1.0 μM): 85.68%
- Cell viability percentage ([2]; K562, MTT, 72 h, 1.5 μM): 69.52%
- Cell viability percentage ([2]; K562, MTT, 72 h, 2.0 μM): 56.13%
- reduction of viability ([2]; K562, MTT, 72 h, 2.5 μM): 50%
- Cell viability percentage ([2]; K562, MTT, 72 h, 2.5 μM): 53.28%
- Cell viability percentage ([2]; K562, MTT, 72 h, 3.0 μM): 48.95%
- Cell viability percentage ([2]; K562, MTT, 72 h, 4.0 μM): 48.17%
- Cell viability percentage ([2]; K562, MTT, 72 h, 5.0 μM): 47.69%
- viability reduction compared between K562 and Lucena lineages [3]: more effective in the Lucena lineage; also recorded: greater percentage of reduction of cell viability than the K562 lineage
- alterations in the cell cycle [4]: did not foster alterations in the cell cycle
- cell death rate compared with imatinib ([5]; Lucena lineage): higher
- induction of cell death (annexin-positive and annexin/PI-positive cells) ([5]; 24 h): induced cell death, probably by apoptosis

SMILES: Cc1ccc(NC(=O)c2ccc(CN3CCN(C)CC3)cc2)cc1Nc1nccc(-c2cccnc2)n1 [Imatinib, imatinib, reference compound]
- viability at 0.05 µM [2, 9]: 93.5%
- viability at 0.1 µM [2, 9]: 63.4%
- viability at 0.25 µM [2, 9]: 54.5%
- viability at 0.5 µM [2, 9]: 20.1%
- viability at 1 µM [2, 9]: 16.3%
- viability at 1.5 µM [2, 9]: 14.3%
- viability at 2 µM [2, 9]: 19.8%
- viability at 2.5 µM [2, 9]: 19.4%
- viability at 3 µM [2, 9]: 14.8%
- viability at 4 µM [2, 9]: 13.5%
- viability at 5 µM [2, 9]: 15%
- concentration from which viability reduction reached a plateau ([3]; Lucena): 1.5 µM
- DNA fragmentation [4]: induced DNA fragmentation
- increase in the number of cells in G0/G1 phase (halt in G0/G1) [4]: about 10%
- patients reaching hematological remission [6]: ~100%
- cytotoxicity at 0.25 µM [7]: ~60%

SMILES: C[C@H]1[C@@H](OC(=O)CCC(=O)O)O[C@@H]2O[C@@]3(C)CC[C@H]4[C@H](C)CC[C@@H]1[C@@]24OO3.Cc1ccc(NC(=O)c2ccc(CN3CCN(C)CC3)cc2)cc1Nc1nccc(-c2cccnc2)n1 [Compound 03, N-(2-methyl-5-(4-((4-methylpiperazine-1-yl)methyl)benzamide)phenyl)-4-(pyridin-3-yl)pyrimidin-2-aminium-4-oxo-4-(((3R,5aS,6R,8aS,9R,10R,12R,12aR)-3,6,9-trimethyldecahydro-3H-3, 12-epoxy[1,2]dioxepin[4,3-yl]isochromen-10-yl)oxy)butanoate]
- induction of cell death (annexin-positive and annexin/PI-positive cells) [1]: induced cell death, probably by apoptosis
- Cell viability percentage ([2]; K562, MTT, 72 h, 0.05 μM): 77.68%
- Cell viability percentage ([2]; K562, MTT, 72 h, 0.1 μM): 82.43%
- reduction in cell viability ([2]; K562, MTT, 72 h, 0.25 μM): about 50%
- Cell viability percentage ([2]; K562, MTT, 72 h, 0.25 μM): 43.45%
- Cell viability percentage ([2]; K562, MTT, 72 h, 0.5 μM): 20.16%
- Cell viability percentage ([2]; K562, MTT, 72 h, 1.0 μM): 18.11%
- Cell viability percentage ([2]; K562, MTT, 72 h, 1.5 μM): 16.73%
- Cell viability percentage ([2]; K562, MTT, 72 h, 2.0 μM): 15.12%
- Cell viability percentage ([2]; K562, MTT, 72 h, 2.5 μM): 17.89%
- Cell viability percentage ([2]; K562, MTT, 72 h, 3.0 μM): 16.69%
- Cell viability percentage ([2]; K562, MTT, 72 h, 4.0 μM): 16.51%
- Cell viability percentage ([2]; K562, MTT, 72 h, 5.0 μM): 15.76%
- viability reduction compared between K562 and Lucena lineages [3]: reduced the viability in the two lineages in a similar way
- increase in the number of cells in G0/G1 phase (halt in G0/G1) [4]: about 10%
- DNA fragmentation [8]: induced DNA fragmentation
- cell death rate in Lucena compared with K562 ([5]; 24 h): greater cell death rate than the K562 lineage
- induction of cell death (annexin-positive and annexin/PI-positive cells) ([5]; 24 h): induced cell death, probably by apoptosis
